Reference: patent US10730884B2, “Substituted indole compound derivatives as dengue viral replication inhibitors” (Janssen Pharmaceuticals, Inc., priority 2016, dated 2020)
pEC50: −log10 of the molar value. Read-outs that look alike come from different tables or passages of the source.

Assays:
DENV-2 strain 16681 = experiment: Tetravalent RT-qPCR assay, serotype 2; format: cell-based, Dengue virus; settings: for pEC50: Dengue virus, DENV2, Vero, 72 h, RT-qPCR serotype 2 16681, Protocol A, Vero cells, day 3; for SI: RT-qPCR serotype 2 16681
Protocol: (§1) The antiviral activity of the compounds of the invention was tested against DENV-1 strain TC974#666 (NCPV), DENV-2 strain 16681, DENV-3 strain H87 (NCPV) and DENV-4 strain H241 (NCPV) in a RT-qPCR assay. Therefore, Vero cells were infected with either DENV-1, or -2, or -3, or -4 in the presence or absence of test compounds. At day 3 post-infection, the cells were lysed and cell lysates were used to prepare cDNA of both a viral target (the 3′UTR of DENV; Table 2) and a cellular reference gene (β-actin, Table 2). Subsequently, a duplex real time PCR was performed on a Lightcycler480 instrument. The generated Cp value is inversely proportional to the amount of RNA expression of these targets. Inhibition of DENV replication by a test compound result in a shift of Cp's for the 3′UTR gene. On the other hand, if a test compound is toxic to the cells, a similar effect on β-actin expression will be observed. The comparative ΔΔCp method is used to calculate EC50, which is based on the relative gene expression of the target gene (3′UTR) normalized with the cellular housekeeping gene (β-actin). In addition, CC50 values are determined based on the Cp values acquired for the housekeeping gene β-actin.
(§2) The culture medium consisted of minimal essential medium supplemented with 2% of heat-inactivated fetal calf serum, 0.04% gentamycin (50 mg/mL) and 2 mM of L-glutamine. Vero cells, obtained from ECACC, were suspended in culture medium and 75 μL/well was added in 96-well plates (10000 cells/well), which already contain the antiviral compounds. […] In addition, each plate contains wells which are assigned as virus controls (containing cells and virus in the absence of compound) and cell controls (containing cells in the absence of virus and compound). Once the cells were added in the plates, the plates were incubated in a fully humidified incubator (37° C., 5% CO2) until the next day. Dengue viruses serotype-1, 2, 3 and 4 were diluted in order to obtain a Cp of ˜22-24 in the assay. Therefore, 25 μL of virus suspension was added to all the wells containing test compound and to the wells assigned as virus control. In parallel, 25 μL of culture medium was added to the cell controls. Next, the plates were incubated for 3 days in a fully humidified incubator (37° C., 5% CO2). After 3 days, the supernatant was removed from the wells and the cells were washed twice with ice-cold PBS (˜100 μL). The cell pellets within the 96-well plates were stored at −80° C. for at least 1 day. Next, RNA was extracted using the Cells-to-CT™ lysis kit, according to the manufacturer's guideline (Life Technologies). The cell lysates can be stored at −80° C. or immediately used in the reverse transcription step.
(§3) In preparation of the reverse transcription step, mix A (table 3A) was prepared and 7.57 μL/well was dispensed in a 96-well plate. After addition of 5 μL of the cell lysates, a five minute denaturation step at 75° C. was performed (table 3B). Afterwards, 7.43 μL of mix B was added (table 3C) and the reverse transcription step was initiated (table 3D) to generate cDNA.
(§4) Finally, a RT-qPCR mix was prepared, mix C (table 4A), and 22.02 μL/well was dispensed in 96-well LightCycler qPCR plates to which 3 μL of cDNA was added and the qPCR was performed according to the conditions in table 4B on a LightCycler 480.
(§5) Using the LightCycler software and an in-house LIMS system, dose response curves for each compound were calculated and the half maximal effective concentration (EC50) and the half maximal cytotoxic concentration (CC50) were determined (Tables 5-8).

DENV-4 strain H241 = experiment: Tetravalent RT-qPCR assay, serotype 4; format: cell-based, Dengue virus; settings: for pEC50: Dengue virus, DENV4, Vero, 72 h, RT-qPCR serotype 4 H241, Protocol A, Vero cells, day 3; for SI: RT-qPCR serotype 4 H241
Protocol: as §1, §2, §3, §4, §5

DENV-1 strain TC974#666 = experiment: Tetravalent RT-qPCR assay, serotype 1; format: cell-based, Dengue virus; settings: for pEC50: Dengue virus, DENV1, Vero, 72 h, RT-qPCR serotype 1 TC974#666, Protocol A, Vero cells, day 3; for SI: RT-qPCR serotype 1 TC974#666
Protocol: as §1, §2, §3, §4, §5

DENV-2 16681 strain = experiment: DENV-2 antiviral assay (eGFP-labeled virus, Vero cells); format: cell-based, Dengue virus; settings: for pEC50: DENV-2 16681 eGFP, Vero cells, MOI 0.5, 3 days; for SI: SI=CC50/EC50, DENV-2 antiviral assay
Protocol: The antiviral activity of all the compounds of the invention was tested against the DENV-2 16681 strain which was labeled with enhanced green fluorescent protein (eGPF). The culture medium consists of minimal essential medium supplemented with 2% of heat-inactivated fetal calf serum, 0.04% gentamycin (50 mg/mL) and 2 mM of L-glutamine. Vero cells, obtained from ECACC, were suspended in culture medium and 25 μL was added to 384-well plates (2500 cells/well), which already contain the antiviral compounds. Typically, these plates contain a 5-fold serial dilution of 9 dilution steps of the test compound at 200 times the final concentration in 100% DMSO (200 nL). […] Finally, each plate contains wells which are assigned as virus controls (containing cells and virus in the absence of compound), cell controls (containing cells in the absence of virus and compound) and medium controls (containing medium in the absence of cells, virus and compounds). To the wells assigned as medium control, 25 μL of culture medium was added instead of Vero cells. Once the cells were added to the plates, the plates were incubated for 30 minutes at room temperature to allow the cells to distribute evenly within the wells. Next, the plates were incubated in a fully humidified incubator (37° C., 5% CO2) until the next day. Then, DENV-2 strain 16681, labeled with eGFP, was added at a multiplicity of infection (MOI) of 0.5. Therefore, 15 μL of virus suspension was added to all the wells containing test compound and to the wells assigned as virus control. In parallel, 15 μL of culture medium was added to the medium and cell controls. Next, the plates were incubated for 3 days in a fully humidified incubator (37° C., 5% CO2). At the day of the read out, the eGFP fluorescence was measured using an automated fluorescence microscope at 488 nm (blue laser). Using an in-house LIMS system, inhibition dose response curves for each compound were calculated and the half maximal effective concentration (EC50) was determined. Therefore, the percent inhibition (I) for every test concentration is calculated using the following formula: I=100*([…])/(SVC−SCC); ST, SCC and SVC are the amount of eGFP signal in the test compound, cell control and virus control wells, respectively. The EC50 represents the concentration of a compound at which the virus replication is inhibited with 50%, as measured by a 50% reduction of the eGFP fluorescent intensity compared to the virus control. The EC50 is calculated using linear interpolation (Table 1).

Vero cells = settings: African green monkey
DENV-3 strain H87 = experiment: Tetravalent RT-qPCR assay, serotype 3; format: cell-based, Dengue virus; settings: for pEC50: Dengue virus, DENV3, Vero, 72 h, RT-qPCR serotype 3 H87, Protocol A, Vero cells, day 3; for SI: RT-qPCR serotype 3 H87
Protocol: as §1, §2, §3, §4, §5

in vitro [1] = settings: African green monkey
in vitro [2] = format: cell-based; settings: African green monkey, CC50
Protocol: as §1, §2, §5

| SMILES | pEC50 (DENV-2 strain 16681) | SI (DENV-2 strain 16681) | pEC50 (DENV-4 strain H241) | SI (DENV-4 strain H241) | pEC50 (DENV-1 strain TC974#666; read-out: EC50) | SI (DENV-1 strain TC974#666) | pEC50 (DENV-2 16681 strain) | SI (DENV-2 16681 strain) | CC50 (Vero cells) | pEC50 (DENV-3 strain H87; read-out: EC50) | SI (DENV-3 strain H87) | CC50 (in vitro [1]) | CC50 at 3 days (in vitro [2]) | pEC50 (DENV-1 strain TC974#666) | pEC50 (DENV-3 strain H87) |
| --- | --- | --- | --- | --- | --- | --- | --- | --- | --- | --- | --- | --- | --- | --- | --- |
| COc1cc(NC(C(=O)c2c[nH]c3cc(F)c(C)cc23)c2ccc(F)cc2OC)cc(OCCO)c1 (single isomer, unassigned) [Compound 3A] | 8.80 | 1610 | 6.68 | 11 | 8.40 | 748 | 8.96 | 3230 | 3800 nM | 7.66 | 42 |  |  |  |  |
| COc1cc(NC(C(=O)c2c[nH]c3cc(F)c(C)cc23)c2ccc(F)cc2OC)cc(OCCO)c1 (single isomer, unassigned) [Compound 3B] |  |  |  |  |  |  | 6.60 | 31 | 8000 nM |  |  |  |  |  |  |
| COc1cc(NC(C(=O)c2c[nH]c3ccc(C)cc23)c2ccc(F)cc2OC)cc(OCCO)c1 (single isomer, unassigned) [Compound 5A] | 8.57 | 4290 | 6.57 | 21 | 8.15 | 1430 | 8.60 | 2910 |  | 7.30 | 207 | 5800 nM | 10000 nM |  |  |
| COc1cc(NC(C(=O)c2c[nH]c3ccc(C)cc23)c2ccc(F)cc2OC)cc(OCCO)c1 (single isomer, unassigned) [Compound 5B] |  |  |  |  |  |  | 6.09 | 14 | 11000 nM |  |  |  |  |  |  |
| COc1cc(NC(C(=O)c2c[nH]c3cc4c(cc23)CCO4)c2ccc(F)cc2OC)cc(OCCO)c1 (single isomer, unassigned) [Compound 7B] |  |  |  |  |  |  | 6.20 | 19 | 12000 nM |  |  |  |  |  |  |
| COc1cc(NC(C(=O)c2c[nH]c3c4c(ccc23)OCC4)c2ccc(F)cc2OC)cc(OCCO)c1 (single isomer, unassigned) [Compound 8B] |  |  |  |  |  |  | 6.09 | 14 | 12000 nM |  |  |  |  |  |  |
| COc1cc(NC(C(=O)c2c[nH]c3cc(F)c(C)cc23)c2ccc(Cl)cc2OC)cc(OCCO)c1 (single isomer, unassigned) [Compound 9B] | 9.16 | 5540 | 7.04 | 28 | 8.85 | 1700 | 9.36 | 7480 |  | 7.80 | 234 |  | 3000 nM |  |  |
| COc1cc(NC(C(=O)c2c[nH]c3cc4c(cc23)CCO4)c2ccc(Cl)cc2OC)cc(OCCO)c1 (single isomer, unassigned) [Compound 10B] | 9.40 | 23600 | 6.96 | >29 | 8.49 | 3340 | 9.49 | 19700 | 9500 nM | 7.66 | 316 |  |  |  |  |
| COc1cc(NC(C(=O)c2c[nH]c3c4c(ccc23)OCC4)c2ccc(Cl)cc2OC)cc(OCCO)c1 (single isomer, unassigned) [Compound 11B] |  |  |  |  |  |  | 6.77 | 49 | 8200 nM |  |  |  |  |  |  |
| [2H]C(Nc1cc(OC)cc(OCCO)c1)(C(=O)c1c[nH]c2cc(F)ccc12)c1ccc(Cl)cc1OC (single isomer, unassigned) [Compound 13B-D] |  |  |  |  |  |  | 6.77 | 54 | 9600 nM |  |  |  |  |  |  |
| COc1cc(NC(C(=O)c2c[nH]c3cc(F)ccc23)c2ccc(Cl)cc2OC)cc(OCCOP(=O)(O)O)c1 (single isomer, unassigned) [Compound 13B-P] |  |  |  |  |  |  | 7.89 | 822 | 11000 nM |  |  |  |  |  |  |
| [2H]C(Nc1cc(OC)cc(OCCO)c1)(C(=O)c1c[nH]c2cc(OC)c(C)cc12)c1ccc(Cl)cc1OC (single isomer, unassigned) [Compound 14A-D] | 9.54 | >11900 | 7.13 | >46 |  | 1070 | 9.59 | 17600 |  |  | >261 | 3600 nM | > 2300 nM | 8.52 | 8.01 |
| [2H]C(Nc1cc(OC)cc(OCCO)c1)(C(=O)c1c[nH]c2cc(OC)c(C)cc12)c1ccc(Cl)cc1OC (single isomer, unassigned) [Compound 14B-D] |  |  |  |  |  |  | 6.96 | 52 | 6000 nM |  |  |  |  |  |  |
| COc1cc(NC(C(=O)c2c[nH]c3ccc(S(F)(F)(F)(F)F)cc23)c2ccc(Cl)cc2OC)cc(OCCO)c1 (single isomer, unassigned) [Compound 15A] | 9.96 | 21200 | 7.85 | 84 | 9.89 | 16100 | 9.77 | 16000 | 2700 nM | 8.36 | 361 |  |  |  |  |
| COc1cc(NC(C(=O)c2c[nH]c3ccc(S(F)(F)(F)(F)F)cc23)c2ccc(Cl)cc2OC)cc(OCCO)c1 (single isomer, unassigned) [Compound 15B] |  |  |  |  |  |  | 7.89 | 460 | 5800 nM |  |  |  |  |  |  |
